Test results published in patent publication US5045190A, “Chromatography apparatus” (priority 1990, dated 1991).

How the values were obtained:
[1] = target: T1, horse serum cholinesterase (Equus caballus, UniProt P81908); assay: Inhibition of horse (serum) cholinesterase, Ki by the method of Dixon; type: biochemical
T1 construct: purchased Sigma Chemicals Co; host or cells: horse serum
Text: E. coli beta-galactosidase, chromatographically purified, was obtained from Worthington Biochemicals. P-aminophenyl-beta-D-thiogalactopyranoside (APGP) was purchased from Calbiochem. O-nitrophenyl-beta-D-galactopyranoside (ONPG), bovine trypsin (twice recrystallized), DL-benzoylarginine-p-nitroanilide (DL-BAPNA), p-aminobenzamidine (PAB), cholinesterase (affinity purified from horse serum), procainamide, dithiobisnitrobenzoate, and butyrylthiocholine were obtained from Sigma Chemicals Co. Tresyl chloride (2,2,2-trifluoroethanesulfonyl chloride) was obtained from Fluka and ethyl-(dimethyl-aminopropyl)carbodiimide (EDC) from Aldrich. The surfactant Sandopan JA36 was obtained from Sandoz Chemicals and the surfactant octaethylene glycol n-hexadecyl ether (C16 E8) was obtained from Nikkol Chemicals Co. (Japan). The structures of these surfactants is as shown below: [drawing 1]
The molar extinction coefficient of C16 E8 -pyridinium at 259 nm is […] (by dry weight). The product final yield is 71.9%.

[2] = reported pI; cited from earlier work
[3] = Stability of trypsin solution at 4 degrees Celsius (BAPNA activity assay); type: physicochemical; conditions: 2.9 mg/ml in Buffer A, over three days
Protocol: This example was conducted in accordance with Example 18 above. The activity of trypsin solutions were determined by a method similar to that described by Erlanger et al., Arch. Biochem. Biophys. 95, 271 (1961), using BAPNA as substrate. An aliquot (0.5 milliliter) of the trypsin solution to be assayed was diluted in 1.5 milliliters of 0.05 M Tris-HCl buffer, pH 8.15, containing 0.02 M CaCl2 in a 3.5 milliliter disposable polystyrene cuvette. A 100 microliter aliquot of a 10^-2 M solution of BAPNA in dimethylsulfoxide was then added to this solution. The rate of change in absorbance at 388 nm at 25 degrees Celsius was then measured in a Schimadzu UV 160 spectrophotometer. One unit of activity was defined as the amount of enzyme causing an absorbance change of 0.1 per minute under these conditions.
A solution of trypsin (2.9 milligrams of protein per milliliter) was prepared in Buffer A and several activity assays were made over the course of three days to determine its stability at 4 degrees Celsius. […] In this case the eluted peaks were collected and assayed for enzymatic activity.

T1 sequence (P81908 whole entry): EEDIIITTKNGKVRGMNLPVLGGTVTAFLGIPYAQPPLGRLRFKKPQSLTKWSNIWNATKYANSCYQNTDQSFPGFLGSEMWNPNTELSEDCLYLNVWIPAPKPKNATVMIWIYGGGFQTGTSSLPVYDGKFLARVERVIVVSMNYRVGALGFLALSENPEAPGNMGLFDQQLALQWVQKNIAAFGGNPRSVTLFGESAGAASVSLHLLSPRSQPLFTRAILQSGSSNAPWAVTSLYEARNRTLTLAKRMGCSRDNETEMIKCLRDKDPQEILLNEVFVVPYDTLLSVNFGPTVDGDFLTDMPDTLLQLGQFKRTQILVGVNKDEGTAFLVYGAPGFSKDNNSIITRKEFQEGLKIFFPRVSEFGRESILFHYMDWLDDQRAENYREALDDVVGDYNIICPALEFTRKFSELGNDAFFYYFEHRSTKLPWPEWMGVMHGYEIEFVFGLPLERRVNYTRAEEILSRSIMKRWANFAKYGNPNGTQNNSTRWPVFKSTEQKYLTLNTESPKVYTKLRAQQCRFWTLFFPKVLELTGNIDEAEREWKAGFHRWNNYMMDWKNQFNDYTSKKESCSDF

Molecule: CCCCCCCCCCCCCCCCOCCOCCOCCOCCOCCOCCOCCOCC[n+]1ccccc1 [C16 E8 -pyridinium, N-(n-hexadecyloctaethoxy)pyridinium]
- Ki ([1]; horse serum cholinesterase, method of Dixon, read-out: Ki toward horse serum cholinesterase): 514 nM
- inhibition of the enzymatic activity of horse cholinesterase ([1]; surface active HPLC peak, retention time 127.5 minutes): significantly inhibits

Molecule: CCCCCCCCCCCCCCCCOCCOCCOCCOCCOCCOCCOCCOCCO [Unmodified surfactant, octaethylene glycol n-hexadecyl ether, reference compound]
- effect on the activity of horse cholinesterase ([1]; even at concentrations as high as 10^-3 M): does not have any effect

Molecule: Lysozyme: test protein, isoelectric point (pI) of 11.0
- isoelectric point (pI) [2]: 11.0

B1: trypsin: bovine trypsin (twice recrystallized) (protein, UniProt P00760 24-246, looked up)
Serine protease 1: IVGGYTCGANTVPYQVSLNSGYHFCGGSLINSQWVVSAAHCYKSGIQVRLGEDNINVVEGNEQFISASKSIVHPSYNSNTLNNDIMLIKLKSAASLNSRVASISLPTSCASAGTQCLISGWGNTKSSGTSYPDVLKCLKAPILSDSSCKSAYPGQITSNMFCAGYLEGGKDSCQGDSGGPVVCSGKLQGIVSWGSGCAQKNKPGVYTKVCNYVSWIKQTIASN
- loss in tryptic activity (stability of solution) [3]: No significant loss in tryptic activity was observed
